Patent US8268847B2, “Therapeutic compositions comprising a specific endothelin receptor antagonist and a PDE5 inhibitor” (Actelion Pharmaceuticals, Ltd., priority 2006, dated 2012)
Where “and” joins values, the source holds several entries; their conditions need not be identical. Equal entries are not always repeated.

Assays:
[1] = system: Dahl salt-sensitive (Dahl-S) rats; test: Dahl salt-sensitive rat model: blood pressure by telemetry, area between curves (ABC); format: in vivo; conditions: oral, 0 to 72 hours
Protocol: Dahl Salt-Sensitive Rat Model
Dahl salt-sensitive (Dahl-S) were purchased from Harlan (Netherlands). The rats were housed by group during the acclimatization period and single-housed after implantation of the telemetry device. All animals were maintained under identical conditions and had free access to normal pelleted rat chow and water. Dahl salt-sensitive rats develop hypertension only upon exposure to salt intake. They were administered a high-salt (8%) chow diet (Purina series 5500). Five weeks after starting salt administration, a telemetry system was implanted under anaesthesia by inhalation of 2.5% isoflurane (in 70% O2+30% N2O). […]
The compounds were administered at least 2 weeks after telemetry system implantation. […] The acute effects of the compound of formula (I), the compound having PDE5-inhibitory properties and their combination on blood pressure were measured by collecting data at 5-minute intervals up to 72 h after oral administration. Hourly means of blood pressure were calculated for each rat. […] The two curves (blood pressure of the control period and blood pressure of the treatment period) were plotted together and the area between curves (ABC) from 0 to 72 hours was calculated. […]

[2] = system: spontaneously hypertensive rats (SHR); test: Spontaneously hypertensive rat model: blood pressure by telemetry, area between curves (ABC); format: in vivo; conditions: oral, 0 to 72 hours
Protocol: The compounds were administered at least 2 weeks after telemetry system implantation. The compound of formula (I) and the compound having PDE5-inhibitory properties were prepared in 5% arabic gum and administered by oral gavage. The acute effects of the compound of formula (I), the compound having PDE5-inhibitory properties and their combination on blood pressure were measured by collecting data at 5-minute intervals up to 72 h after oral administration. Hourly means of blood pressure were calculated for each rat. Each rat served as its own control, by using the blood pressure data of the last 24 hours before drug administration. The two curves (blood pressure of the control period and blood pressure of the treatment period) were plotted together and the area between curves (ABC) from 0 to 72 hours was calculated. The higher the ABC, the stronger the effect of the item tested for lowering blood pressure.
Spontaneously Hypertensive Rat Model
The SHR rats were purchased from Harlan (Netherlands).

CN1CC(=O)N2[C@H](c3ccc4c(c3)OCO4)c3[nH]c4ccccc4c3C[C@@H]2C1=O [tadalafil]
area between curves (ABC) of blood pressure, control period vs treatment period ([1]; 10 mg/kg): 310
area between curves (ABC) of blood pressure, control period vs treatment period ([2]; 10 mg/kg): 286

CCCNS(=O)(=O)Nc1ncnc(OCCOc2ncc(Br)cn2)c1-c1ccc(Br)cc1 [compound of formula (I)]
area between curves (ABC) of blood pressure, control period vs treatment period ([1]; 0.3 mg/kg, higher ABC = stronger blood pressure lowering): 256
area between curves (ABC) of blood pressure, control period vs treatment period ([2]; 0.3 mg/kg): 44 and 38

CCCc1nn(C)c2c(=O)[nH]c(-c3cc(S(=O)(=O)N4CCN(C)CC4)ccc3OCC)nc12 [sildenafil]
area between curves (ABC) of blood pressure, control period vs treatment period ([2]; 30 mg/kg): 229
